Data taken from ChEMBL document CHEMBL1201861, “Genomics of Drug Sensitity in Cancer screening data, Wellcome Trust Sanger Institute”.

Legend:
Test in all cases: cells
SNU-449 = type: functional, cell-based, Homo sapiens; conditions: Homo sapiens, SNU-449
Description: SANGER: Inhibition of human SNU-449 cell growth in a cell viability assay.

MCF7 = type: functional, cell-based, Homo sapiens; conditions: Homo sapiens, MCF7;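 further: growth inhibition of human MCF7 cells, read out with a cell viability assay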
Description: SANGER: Inhibition of human MCF7 cell growth in a cell viability assay.

A549 = type: functional, cell-based, Homo sapiens; conditions: Homo sapiens, A549;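 further: growth inhibition of A549 cells, read out with a cell viability assay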
Description: SANGER: Inhibition of human A549 cell growth in a cell viability assay.

U2OS = type: functional, cell-based, Homo sapiens, U-2-OS; conditions: Homo sapiens, U2OS;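 further: growth inhibition of human U-2-OS cells, determined with a cell viability assay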
Description: SANGER: Inhibition of human U-2-OS cell growth in a cell viability assay.

SW1417 = type: functional, cell-based, Homo sapiens; conditions: Homo sapiens, SW1417;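 further: growth inhibition of human SW1417 cells, read out with a cell viability assay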
Description: SANGER: Inhibition of human SW1417 cell growth in a cell viability assay.

UMUC3 = type: functional, cell-based, Homo sapiens; conditions: Homo sapiens, UMUC3;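 further: growth inhibition of human UM-UC-3 cells, read out with a cell viability assay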
Description: SANGER: Inhibition of human UM-UC-3 cell growth in a cell viability assay.

KYSE-270 = type: functional, cell-based, Homo sapiens; conditions: Homo sapiens, KYSE-270;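 further: cell growth inhibition measured with a viability assay in the human KYSE-270 line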
Description: SANGER: Inhibition of human KYSE-270 cell growth in a cell viability assay.

NCI-H522 = type: functional, cell-based, Homo sapiens; conditions: Homo sapiens, NCI-H522;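 further: cell viability assay measuring growth inhibition of human NCI-H522 cells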
Description: SANGER: Inhibition of human NCI-H522 cell growth in a cell viability assay.

SK-OV-3 = type: functional, cell-based, Homo sapiens; conditions: Homo sapiens, SK-OV-3;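 further: growth inhibition of SK-OV-3 human cells, read out with a cell viability assay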
Description: SANGER: Inhibition of human SK-OV-3 cell growth in a cell viability assay.

HCC1395 = type: functional, cell-based, Homo sapiens; conditions: Homo sapiens, HCC1395;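 further: growth inhibition of HCC1395 cells, read out by a cell viability assay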
Description: SANGER: Inhibition of human HCC1395 cell growth in a cell viability assay.

NCI-H596 = type: functional, cell-based, Homo sapiens; conditions: Homo sapiens, NCI-H596;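 further: growth inhibition of NCI-H596 cells, read out with a cell viability assay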
Description: SANGER: Inhibition of human NCI-H596 cell growth in a cell viability assay.

RERF-LC-MS = type: functional, cell-based, Homo sapiens; conditions: Homo sapiens, RERF-LC-MS;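 further: growth inhibition of human RERF-LC-MS cells, read out by a cell viability assay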
Description: SANGER: Inhibition of human RERF-LC-MS cell growth in a cell viability assay.

AU565 = type: functional, cell-based, Homo sapiens; conditions: Homo sapiens, AU565;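 further: cell viability assay measuring growth inhibition of human AU565 cells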
Description: SANGER: Inhibition of human AU565 cell growth in a cell viability assay.

SKG-IIIa = type: functional, cell-based, Homo sapiens; conditions: Homo sapiens, SKG-IIIa;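 further: cell growth inhibition, read out with a cell viability assay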
Description: SANGER: Inhibition of human SKG-IIIa cell growth in a cell viability assay.

HLE = type: functional, cell-based, Homo sapiens; conditions: Homo sapiens, HLE;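 further: growth inhibition of human HLE cells, read out by a cell viability assay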
Description: SANGER: Inhibition of human HLE cell growth in a cell viability assay.

A673 = type: functional, cell-based, Homo sapiens; conditions: Homo sapiens, A673;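 further: growth inhibition of human A673 cells, read out through a cell viability assay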
Description: SANGER: Inhibition of human A673 cell growth in a cell viability assay.

T98G = type: functional, cell-based, Homo sapiens; conditions: Homo sapiens, T98G;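 further: growth inhibition of T98G cells, read out by a cell viability assay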
Description: SANGER: Inhibition of human T98G cell growth in a cell viability assay.

MDA-MB-231 = type: functional, cell-based, Homo sapiens; conditions: Homo sapiens, MDA-MB-231
Description: SANGER: Inhibition of human MDA-MB-231 cell growth in a cell viability assay.

NCI-H2122 = type: functional, cell-based, Homo sapiens; conditions: Homo sapiens, NCI-H2122;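 further: growth inhibition of the cells, read out with a cell viability assay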
Description: SANGER: Inhibition of human NCI-H2122 cell growth in a cell viability assay.

NCI-H2030 = type: functional, cell-based, Homo sapiens; conditions: Homo sapiens, NCI-H2030;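 further: growth inhibition of human NCI-H2030 cells, read out by a cell viability assay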
Description: SANGER: Inhibition of human NCI-H2030 cell growth in a cell viability assay.

SCC-25 = type: functional, cell-based, Homo sapiens; conditions: Homo sapiens, SCC-25;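 further: growth inhibition of SCC-25 cells, measured with a cell viability assay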
Description: SANGER: Inhibition of human SCC-25 cell growth in a cell viability assay.

HO-1-N-1 = type: functional, cell-based, Homo sapiens; conditions: Homo sapiens, HO-1-N-1;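 further: growth inhibition of human HO-1-N-1 cells, read out with a cell viability assay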
Description: SANGER: Inhibition of human HO-1-N-1 cell growth in a cell viability assay.

HCC1806 = type: functional, cell-based, Homo sapiens; conditions: Homo sapiens, HCC1806;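 further: growth inhibition of the cancer cell line, determined with a cell viability assay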
Description: SANGER: Inhibition of human HCC1806 cell growth in a cell viability assay.

OAW-28 = type: functional, cell-based, Homo sapiens; conditions: Homo sapiens, OAW-28;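 further: growth inhibition of OAW-28 cells, read out with a cell viability assay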
Description: SANGER: Inhibition of human OAW-28 cell growth in a cell viability assay.

A-427 = type: functional, cell-based, Homo sapiens; conditions: Homo sapiens, A-427;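 further: growth inhibition of human A-427 cells, read out by a cell viability assay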
Description: SANGER: Inhibition of human A427 cell growth in a cell viability assay.

A2780 = type: functional, cell-based, Homo sapiens; conditions: Homo sapiens, A2780;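 further: growth inhibition of A2780 cells, read out with a cell viability assay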
Description: SANGER: Inhibition of human A2780 cell growth in a cell viability assay.

G-402 = type: functional, cell-based, Homo sapiens; conditions: Homo sapiens, G-402
Description: SANGER: Inhibition of human G-402 cell growth in a cell viability assay.

NCI-H1563 = type: functional, cell-based, Homo sapiens; conditions: Homo sapiens, NCI-H1563;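 further: growth inhibition of human NCI-H1563 cells, read out with a cell viability assay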
Description: SANGER: Inhibition of human NCI-H1563 cell growth in a cell viability assay.

Huh-7 = type: functional, cell-based, Homo sapiens; conditions: Homo sapiens, Huh-7;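 further: HuH-7 cell growth inhibition, read out with a cell viability assay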
Description: SANGER: Inhibition of human HuH-7 cell growth in a cell viability assay.

COLO-680N = type: functional, cell-based, Homo sapiens; conditions: Homo sapiens, COLO-680N;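 further: cell viability assay used to measure inhibition of COLO-680N cell growth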
Description: SANGER: Inhibition of human COLO-680N cell growth in a cell viability assay.

647-V = type: functional, cell-based, Homo sapiens; conditions: Homo sapiens, 647-V;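 further: growth inhibition of 647-V cells, read out with a cell viability assay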
Description: SANGER: Inhibition of human 647-V cell growth in a cell viability assay.

GCT = type: functional, cell-based, Homo sapiens; conditions: Homo sapiens, GCT;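 further: GCT cell line proliferation inhibition, read out with a cell viability assay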
Description: SANGER: Inhibition of human GCT cell growth in a cell viability assay.

MIA PaCa-2 = type: functional, cell-based, Homo sapiens; conditions: Homo sapiens, MIA PaCa-2;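 further: growth inhibition of MIA PaCa-2 cells, read out with a cell viability assay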
Description: SANGER: Inhibition of human MIA-PaCa-2 cell growth in a cell viability assay.

Hs-578T = type: functional, cell-based, Homo sapiens; conditions: Homo sapiens, Hs-578T
Description: SANGER: Inhibition of human Hs-578-T cell growth in a cell viability assay.

CFPAC-1 = type: functional, cell-based, Homo sapiens; conditions: Homo sapiens, CFPAC-1;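 further: cell viability readout used to gauge suppression of CFPAC-1 cell proliferation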
Description: SANGER: Inhibition of human CFPAC-1 cell growth in a cell viability assay.

HSC-4 = type: functional, cell-based, Homo sapiens; conditions: Homo sapiens, HSC-4;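 further: growth inhibition of human HSC-4 cells, read out with a cell viability assay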
Description: SANGER: Inhibition of human HSC-4 cell growth in a cell viability assay.

Structure (SMILES) | IC50 (SNU-449) | IC50 (MCF7) | IC50 (A549) | IC50 (U2OS) | IC50 (SW1417) | IC50 (UMUC3) | IC50 (KYSE-270) | IC50 (NCI-H522) | IC50 (SK-OV-3) | IC50 (HCC1395) | IC50 (NCI-H596) | IC50 (RERF-LC-MS) | IC50 (AU565) | IC50 (SKG-IIIa) | IC50 (HLE) | IC50 (A673) | IC50 (T98G) | IC50 (MDA-MB-231) | IC50 (NCI-H2122) | IC50 (NCI-H2030) | further results
COc1cc2c(Nc3ccc(NC(=O)c4ccccc4)cc3)ncnc2cc1OCCCN1CCOCC1 | > 4000 nM | > 4000 nM | 2640 nM | > 4000 nM | > 4000 nM | > 4000 nM | > 4000 nM | > 4000 nM | > 4000 nM | > 4000 nM | > 4000 nM | > 4000 nM | > 4000 nM | > 4000 nM | > 4000 nM | > 4000 nM | 3950 nM | > 4000 nM | > 4000 nM | > 4000 nM | IC50 (SCC-25): > 4000 nM; IC50 (HO-1-N-1): 2150 nM; IC50 (HCC1806): > 4000 nM; IC50 (OAW-28): > 4000 nM; IC50 (A-427): > 4000 nM; IC50 (A2780): > 4000 nM; IC50 (G-402): > 4000 nM; IC50 (NCI-H1563): > 4000 nM; IC50 (Huh-7): > 4000 nM; IC50 (COLO-680N): > 4000 nM; IC50 (647-V): > 4000 nM; IC50 (GCT): 3770 nM; IC50 (MIA PaCa-2): 3910 nM; IC50 (Hs-578T): > 4000 nM; IC50 (CFPAC-1): > 4000 nM
CC(C)c1ccccc1Cc1cc(C(=O)Nc2ccc(S(=O)(=O)c3ccccc3C(C)(C)C)cc2)c(O)c(O)c1O | 372 nM | 337 nM | 14.1 nM | 552 nM | 1910 nM | 163 nM | 1080 nM | 2080 nM | 527 nM | 7110 nM | 3320 nM | 35.2 nM | 353 nM | 576 nM | 121 nM | 53.8 nM | 606 nM | 108 nM | 538 nM | 2810 nM | IC50 (SCC-25): 523 nM; IC50 (HO-1-N-1): 1420 nM; IC50 (HSC-4): 213 nM; IC50 (HCC1806): 1430 nM; IC50 (OAW-28): 294 nM; IC50 (A-427): 44.7 nM; IC50 (A2780): 218 nM; IC50 (G-402): 193 nM; IC50 (NCI-H1563): 124 nM; IC50 (Huh-7): 32.8 nM; IC50 (COLO-680N): 1430 nM; IC50 (647-V): 88.4 nM; IC50 (GCT): 191 nM; IC50 (MIA PaCa-2): 479 nM; IC50 (Hs-578T): 23.6 nM; IC50 (CFPAC-1): 522 nM
CC1(C)CNc2cc(NC(=O)c3cccnc3NCc3ccncc3)ccc21 [MOTESANIB] | > 2000 nM | > 2000 nM | > 2000 nM | > 2000 nM | > 2000 nM | > 2000 nM | > 2000 nM | > 2000 nM | > 2000 nM | > 2000 nM | > 2000 nM | > 2000 nM | > 2000 nM | > 2000 nM | > 2000 nM | > 2000 nM | > 2000 nM | > 2000 nM | > 2000 nM | > 2000 nM | IC50 (SCC-25): > 2000 nM; IC50 (HO-1-N-1): > 2000 nM; IC50 (HCC1806): > 2000 nM; IC50 (OAW-28): > 2000 nM; IC50 (A-427): > 2000 nM; IC50 (A2780): > 2000 nM; IC50 (G-402): 1020 nM; IC50 (NCI-H1563): > 2000 nM; IC50 (Huh-7): > 2000 nM; IC50 (COLO-680N): > 2000 nM; IC50 (647-V): > 2000 nM; IC50 (GCT): > 2000 nM; IC50 (MIA PaCa-2): > 2000 nM; IC50 (Hs-578T): > 2000 nM; IC50 (CFPAC-1): > 2000 nM
CCN(CC)CCCCNc1ncc2cc(-c3cc(OC)cc(OC)c3)c(NC(=O)NC(C)(C)C)nc2n1 [PD-173074] | > 2000 nM | > 2000 nM | > 2000 nM | > 2000 nM | > 2000 nM | > 2000 nM | > 2000 nM | > 2000 nM | > 2000 nM | > 2000 nM | > 2000 nM | > 2000 nM | > 2000 nM | > 2000 nM | > 2000 nM | > 2000 nM | > 2000 nM | > 2000 nM | > 2000 nM | > 2000 nM | IC50 (SCC-25): > 2000 nM; IC50 (HO-1-N-1): > 2000 nM; IC50 (HCC1806): > 2000 nM; IC50 (OAW-28): > 2000 nM; IC50 (A-427): > 2000 nM; IC50 (A2780): > 2000 nM; IC50 (G-402): > 2000 nM; IC50 (NCI-H1563): > 2000 nM; IC50 (Huh-7): 1240 nM; IC50 (COLO-680N): > 2000 nM; IC50 (647-V): > 2000 nM; IC50 (GCT): > 2000 nM; IC50 (MIA PaCa-2): > 2000 nM; IC50 (Hs-578T): > 2000 nM; IC50 (CFPAC-1): > 2000 nM
